{"source": "paper PMC9821843", "about": "“Powerful Potential of Polyfluoroalkyl-Containing 4-Arylhydrazinylidenepyrazol-3-ones for Pharmaceuticals” (Molecules, 2022)", "key": {"Sprague-Dawley (SD) rats": {"test_system": "Sprague-Dawley (SD) rats", "assay": "Hot plate test (analgesic activity)", "assay_type": "in vivo", "settings": "Rattus norvegicus, hot plate test, rats, ip, dose 10 mg/kg, eight independent experiments", "procedure,_shortened": "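Test compounds were given i.p. as suspensions in 1% starch mucilage to SD rats (3 male, 3 female per group), vehicle as negative control. At 1 and 2 h post-dose, latency to nociceptive response (jumping, hind paw licking/shaking) on a 50 °C plate was recorded, 30 s cutoff.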"}, "Sprague-Dawley rats": {"test_system": "Sprague-Dawley rats", "assay": "Carrageenan-induced paw edema model (anti-inflammatory activity)", "assay_type": "in vivo", "settings": "ip, dose 10 mg/kg, four independent experiments", "protocol": "Anti-inflammatory activity was studied in Sprague-Dawley rats (3 male and 3 female animals per group) by using the common carrageenan-induced paw edema model. The investigated compounds in 1% starch mucilage were intraperitoneally administered at the corresponding dose to a treated group of rodents 30 min before the injection of 0.1 mL of freshly prepared 1% carrageenan (λ-carrageenan, type IV; Sigma Aldrich, an affiliate of Merck KGaA, Darmstadt, Germany) solution in the right hind paw plantar surface. The negative control group was treated with 1% starch mucilage solution only. Diclofenac sodium (10 mg/kg in 1% starch mucilage solution) was used as a reference drug. Paw volumes were measured oncometrically with water plethysmometer (TSE Volume Meter, Bad Homburg, Germany) before carrageenan administration (“zero time”) and at 1st, 3rd, 5th and 24th h after its injection. An anti-inflammatory activity of the sample at a certain time point was calculated in two steps. First, the percentage of an edema increment (i.e., relative volume change for the inflamed paw vs. “zero time” value) both in the negative control group (Pc) and in the treated group (Ptr) were calculated for this time point for each animal. The difference between treated and control group was considered significant at p < 0.05. Then, for such cases, swelling inhibition was calculated according to the formula: 100% (Pc − Ptr)/Pc and considered as a measure of anti-inflammatory activity of the sample."}, "ratTRPV1 (rTRPV1)": {"target": "T1, ratTRPV1 (rTRPV1) (Rattus norvegicus, UniProt O35433)", "T1 construct": "expressed in transfected cells", "T1 sequence (O35433 whole entry)": "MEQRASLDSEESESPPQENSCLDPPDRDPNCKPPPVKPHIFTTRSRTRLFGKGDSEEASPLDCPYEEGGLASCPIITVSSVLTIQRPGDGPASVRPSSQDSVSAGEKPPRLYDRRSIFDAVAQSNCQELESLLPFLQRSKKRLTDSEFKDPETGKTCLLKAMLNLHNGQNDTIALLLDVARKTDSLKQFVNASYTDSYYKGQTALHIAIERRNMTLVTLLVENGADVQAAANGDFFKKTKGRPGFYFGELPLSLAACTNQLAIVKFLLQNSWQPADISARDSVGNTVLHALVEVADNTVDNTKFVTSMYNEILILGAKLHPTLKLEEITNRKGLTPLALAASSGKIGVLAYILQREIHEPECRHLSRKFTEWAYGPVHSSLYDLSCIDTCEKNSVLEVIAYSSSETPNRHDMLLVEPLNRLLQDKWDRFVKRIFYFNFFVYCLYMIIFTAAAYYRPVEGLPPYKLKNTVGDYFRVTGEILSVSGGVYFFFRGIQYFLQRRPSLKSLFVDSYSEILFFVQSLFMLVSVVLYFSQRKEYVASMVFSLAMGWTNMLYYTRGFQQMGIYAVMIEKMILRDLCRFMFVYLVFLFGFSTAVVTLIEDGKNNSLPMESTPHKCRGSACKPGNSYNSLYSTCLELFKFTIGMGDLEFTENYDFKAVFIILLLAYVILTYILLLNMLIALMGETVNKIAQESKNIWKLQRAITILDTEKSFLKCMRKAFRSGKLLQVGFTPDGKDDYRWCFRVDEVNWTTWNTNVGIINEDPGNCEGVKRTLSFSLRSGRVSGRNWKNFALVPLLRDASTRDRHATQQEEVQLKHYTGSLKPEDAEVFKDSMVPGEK", "assay": "TRPV1 calcium imaging in CHO cells (acid / 2APB activation)", "assay_type": "cell-based", "settings": "50 μM", "protocol": "Testing for receptors ratTRPA1 (rTRPA1) and ratTRPV1 (rTRPV1), stably expressed in CHO cells, was carried out using the calcium imaging method as described in [123, 124]. Fluorescence was performed using NOVOstar (BMG LABTECH, Ortenberg, Germany). The tested substances in 26% DMSO solution or 26% DMSO solution alone (negative control) (5 μL) were added to the cells loaded with the cytoplasmic calcium indicator Fluo-4AM using Fluo-4 Direct™ Calcium Assay Kit (Thermo Fisher Scientific Inc., Waltham, MA, USA) (60 μL) and incubated 5–10 min. Final DMSO concentration was 2%. Changes in cell fluorescence (λex = 485 nm, λem = 520 nm) were monitored at 25 °C before and after the addition of relevant agonist. The AITC final concentration 160 μM was used for rTRPA1 activation. For rTRPV1 activation we used (1) acid-salt buffer pH4.01 (diluted 2 times Buffer solution pH 4.01 (Mettler Toledo, Greifensee, Switzerland) containing 150 mM NaCl), (2) 2APB in 10 mM HEPES/HBSS, pH 7.4—final concentration 160 μM, or (3) 2APB in acid-salt buffer pH 4.01—final concentration 80 μM. Nonspecificity was tested on wild type CHO.\nTo achieve the required level of acidification, the cell medium with fluorescent dye (pH 7.4) was pre-titrated to determine the required volume of acid-salt buffer until pH 6.2 was reached. The pH level was also monitored after the test as an average of 10–12 wells. […]"}}, "note": "Where two headings read alike, the source gives them in different places."}
{"smiles": "Cc1ccc(N/N=C2\\C(=O)N(c3ccc(C)cc3)N=C2C(F)(F)C(F)(F)F)cc1", "values": [{"measurement": "melting point", "result": "165 to 166", "unit": "°C"}]}
{"smiles": "O=C(O)Cc1ccccc1Nc1c(Cl)cccc1Cl", "note": "[Diclofenac, reference compound]", "values": [{"measurement": "change in vivo at 10 mg/kg", "setting": "Sprague-Dawley (SD) rats; 1 h, read-out: Latent Period Prolongation, % 1 h", "result": "63.5 ± 18.2", "unit": "%"}, {"measurement": "change in vivo at 10 mg/kg", "setting": "Sprague-Dawley (SD) rats; 2 h, read-out: Latent Period Prolongation, % 2 h", "result": "70 ± 20.8", "unit": "%"}, {"measurement": "Inhibition of Paw Edema Development Comparing to Control, after 1 h", "setting": "Sprague-Dawley rats", "result": "35.6 ± 5.8 ^1%"}, {"measurement": "Inhibition of Paw Edema Development Comparing to Control, after 3 h", "setting": "Sprague-Dawley rats", "result": "54.3 ± 12.1 ^1%"}, {"measurement": "Inhibition of Paw Edema Development Comparing to Control, after 5 h", "setting": "Sprague-Dawley rats", "result": "46.2 ± 13.2 ^1%"}]}
{"smiles": "Oc1cc2c(cc1O)CN(C(=S)NCCc1ccc(Cl)cc1)CCC2", "note": "[capsazepine]", "values": [{"measurement": "inhibition of the increase in intracellular Ca2+ (TRPV1 activation by acidic solution or 160 μM 2APB)", "setting": "ratTRPV1 (rTRPV1)", "result": "effectively inhibited"}]}
